{
  "source": "patent US11071727B2",
  "about": "“Therapeutic targeting of proteolytic cleavage of the mixed lineage leukemia gene product (MLL1) by taspase1 using kinase inhibitors” (Northwestern University, priority 2018, dated 2021)",
  "key": {"JUP and SLC43A2 mRNA": {"tested_on": "JUP and SLC43A2 mRNA", "experiment": "mRNA levels of JUP and SLC43A2 genes in SEM cells", "assay_type": "cell-based, human", "method": "RNA-seq Analysis. Gene count tables were constructed using HTseq (Anders et al. 2015) with Ensembl gene annotations and used as input for edgeR 3.0.8 (Robinson et al. 2010). Genes with Benjamini-Hochburg adjusted p-values less than 0.01 were considered to be differentially expressed. GO enrichment analysis was evaluated by the MetaScape online software suite (Tripathi et al. 2015)."}, "MLL1": {"tested_on": "MLL1", "experiment": "Western blot of full-length MLL1 protein levels in cells treated with CKII inhibitors", "assay_type": "cell-based, human", "settings": "30 hours", "method": "(§1) FIG. 5. CKII inhibitors selectively increase full-length MLL1 protein levels by decreasing the phosphorylation of MLL1 near the cleavage sites. (A) Conservation of the sequences flanking MLL1-CS2, MLL2 and TFIIA cleavage sites and phosphorylated serine and threonine residues after the cleavage sites (highlighted in red). (B) and (C) 293T cells were transfected with vector control (VT), WT, AA or DD reporter constructs of MLL1-p75 or TFIIA. Western blot was performed with anti-Flag antibody for MLL1 (p75: FL, p47: cleaved) or TFIIA (p54: FL, p47: cleaved). (D) and (E) 293T cells were transfected with WT or AA reporter constructs of MLL1-p75 or TFIIA in the presence or absence of HA-taspase1. Western blot was performed with anti-Flag antibody for MLL1 or TFIIA, or anti-HA antibody for taspase1. (F) 293T cells were infected with shRNAs against CKIIα or CKIIα′. Western blot was performed with anti-MLL1C antibody for MLL1 full-length protein levels, and CKIIα or CKIIα′ for knockdown efficiency. (G) 293T cells were treated with DMSO or 10 μM CX-4945 for 30 hours. Cells were harvested and lysed for Western blot against MLL1, MLL2 or TFIIA using β-tubulin as the loading control. (H) and (I) 293T taspase1 KO cells were pre-treated with CX-4945 (3 μM) or TTP22 (10 μM) for 30 hours. Whole cell lysates from the two conditions were incubated with increasing concentrations of his-taspase1 and subject to in vitro taspase1 assay.\nFIG. 13. CKII inhibitors increase full-length MLL1 protein levels. (A) Prediction of kinases that phosphorylate MLL1 near the taspase1 cleavage site. (B) Structure of the CKII inhibitors CX-4945, TTP22, DMAT and TTB. (C) Comparison of the IC50 and molecular weight of the four CKII inhibitors. […] Quantification of the band intensities was performed by ImageJ software. (E) and (F) in vitro taspase1 cleavage assay. Taspase1 KO cell lysates were incubated with recombinant his-tagged taspase1 (0, 1, 10, 100 or 1000 ng) and subject to in vitro taspase1 cleavage assay. Cleavage efficiency was shown as the blotting for MLL1 and TFIIA using Hsp90 as the loading control.\nCell culture. […]"}, "[1]": {"tested_on": "MLL1 cleavage by taspase1", "experiment": "in vitro taspase1 cleavage assay on lysates of pretreated taspase1 KO cells", "assay_type": "biochemical, human", "settings": "293T taspase1 KO cells pretreated 30 hours with CX-4945 (3 μM) or TTP22 (10 μM), compared with DMSO control", "method": "as §1, with “(H) and (I) 293T taspase1 KO cells were pre-treated with CX-4945 (3 μM) or TTP22 (10 μM) for 30 hours. Whole cell lysates from the two conditions were incubated with increasing concentrations of his-taspase1 and subject to in vitro taspase1 assay.” left out\nin vitro taspase1 cleavage assay. […] Cleavage efficiency was detected by western blot against MLL1C and TFIIA using Hsp90 as the loading control."}},
  "data": [
    {"smiles": "O=C(O)c1ccc2c(c1)nc(Nc1cccc(Cl)c1)c1ccncc12", "note": "[CX-4945, 5-(3-chlorophenylamino)benzo[c][2,6]naphthyridine-8-carboxylic acid]", "values": [
      {"measurement": "mRNA levels of JUP and SLC43A2 genes", "setting": "JUP and SLC43A2 mRNA", "value": "decrease of mRNA levels"},
      {"measurement": "conversion from cleaved MLL1 to full-length MLL1", "setting": "MLL1; 293T cells, 10 μM", "value": "increased the conversion from cleaved MLL1 to full-length MLL1"},
      {"measurement": "MLL1 full-length protein levels", "setting": "MLL1; 293T, MCF7 and HCT116 cells, 0-20 μM, Western blot with MLL1C antibody", "value": "dose-dependent increase of MLL1 full-length protein levels"},
      {"measurement": "cleavage efficiency by recombinant taspase1 protein", "setting": "[1]", "value": "cleavage efficiency was significantly diminished"}
    ]}
  ]
}
